The text below walks through data of PubChem BioAssay AID248 (DTP/NCI, 2004).

The assay has as its system L1210 leukemia ip in BDF1 mice, survival T/C. As to the kind of experiment: NCI In Vivo Anticancer Drug Screen. Data for tumor model L1210 Leukemia (intraperitoneal) in B6D2F1 (BDF1) mice. Conditions: endpoint: mean survival time, higher = longer survival. The method in brief:
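Each compound was tested against a transplantable tumor grown in mice. The endpoint was survival, with treated animals benchmarked against vehicle controls as a simple ratio.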

[1] abbreviates: dose: 100.0 mg/kg/injection, schedule: Q04DX003 (ip), vehicle: saline.
Setting [2] is: dose: 100.0 mg/kg/injection, schedule: Q01DX001 (ip), vehicle: saline.
[3] abbreviates: dose: 200.0 mg/kg/injection, schedule: Q01DX001 (ip), vehicle: saline.
[4] abbreviates: dose: 75.0 mg/kg/injection, schedule: Q01DX001 (ip), vehicle: carboxymethylcellulose (CMC).

“And” between values parts separate entries of the source, which are not always exact repeats. Equal entries are not always repeated. Toxic doses and inconclusive results are not listed.

`O/N=C/c1c(O)cccc1Cl`: the T/C by setting is: (dose: 75.0 mg/kg/injection, schedule: Q01DX001 (ip), vehicle: acetone) 102 % of control; (dose: 150.0 mg/kg/injection, schedule: Q01DX001 (ip), vehicle: acetone) 91 % of control.
For `Nc1nc(N)c2nc(CNc3ccc(C(=O)NC(CCC(=O)O)C(=O)O)nc3)cnc2n1` (centres undefined), the T/C is 169 % of control (dose: 0.44 mg/kg/injection, schedule: Q01DX009 (ip), vehicle: Klucel (hydroxypropylcellulose) (HPC)); 168 % of control (dose: 0.66 mg/kg/injection, schedule: Q01DX009 (ip), vehicle: Klucel (hydroxypropylcellulose) (HPC)); 119 % of control (dose: 75.0 micrograms/kg/injection, schedule: Q01DX009 (ip), vehicle: Klucel (hydroxypropylcellulose) (HPC)); 150 % of control (dose: 100.0 micrograms/kg/injection, schedule: Q01DX009 (ip), vehicle: Klucel (hydroxypropylcellulose) (HPC)); 156 % of control and 160 % of control (dose: 150.0 micrograms/kg/injection, schedule: Q01DX009 (ip), vehicle: Klucel (hydroxypropylcellulose) (HPC)); 161 % of control (dose: 220.0 micrograms/kg/injection, schedule: Q01DX009 (ip), vehicle: Klucel (hydroxypropylcellulose) (HPC)). For the same compound, under “dose: 600.0 micrograms/kg/injection, schedule: Q01DX009 (ip), vehicle: Klucel (hydroxypropylcellulose) (HPC)”, the T/C is 102 % of control.
For `C=CC1CCC2OC(=O)C(=C)C2C1` (centres undefined), the T/C under setting [1] was 101 % of control; the T/C (dose: 200.0 mg/kg/injection, schedule: Q04DX003 (ip), vehicle: saline) is 95 % of control; the T/C (dose: 400.0 mg/kg/injection, schedule: Q04DX003 (ip), vehicle: saline) was 101 % of control.
With `CCO[Si](C)(C)CCl`, the T/C under setting [2] is 98 % of control; the T/C under setting [3] is 101 % of control; the T/C (dose: 400.0 mg/kg/injection, schedule: Q01DX001 (ip), vehicle: saline) was 106 % of control.
On to `CNC(=O)NC1C(O)COC(OC)C1O` (centres undefined), for which the T/C (dose: 6.25 mg/kg/injection, schedule: Q01DX009 (ip), vehicle: saline with Tween-80) was 101 % of control; the T/C (dose: 12.5 mg/kg/injection, schedule: Q01DX009 (ip), vehicle: saline with Tween-80) was 101 % of control; the T/C (dose: 25.0 mg/kg/injection, schedule: Q01DX009 (ip), vehicle: saline with Tween-80) is 105 % of control; the T/C (dose: 50.0 mg/kg/injection, schedule: Q01DX009 (ip), vehicle: saline with Tween-80) was 100 % of control.
For `O=P(Oc1ccc(OP(=O)(N2CC2)N2CC2)cc1)(N1CC1)N1CC1`, the T/C (dose: 9.0 mg/kg/injection, schedule: Q01DX009 (ip), vehicle: saline) was 96 % of control; the T/C (dose: 9.5 mg/kg/injection, schedule: Q01DX001 (ip), vehicle: saline) is 98 % of control; the T/C (dose: 13.0 mg/kg/injection, schedule: Q01DX009 (ip), vehicle: saline) is 110 % of control; the T/C (dose: 19.0 mg/kg/injection, schedule: Q01DX001 (ip), vehicle: saline) was 110 % of control; the T/C (dose: 20.0 mg/kg/injection, schedule: Q01DX009 (ip), vehicle: saline) was 104 % of control; the T/C (dose: 22.0 mg/kg/injection, schedule: Q01DX Z (ip), vehicle: other) was 103 % of control. Besides, the T/C reads like this: (dose: 32.0 mg/kg/injection, schedule: Q01DX009 (ip), vehicle: saline) 100 % of control; (dose: 33.0 mg/kg/injection, schedule: Q01DX Z (ip), vehicle: other) 104 % of control; (dose: 38.0 mg/kg/injection, schedule: Q01DX001 (ip), vehicle: saline) 102 % of control; (dose: 50.0 mg/kg/injection, schedule: Q01DX Z (ip), vehicle: other) 114 % of control; (dose: 54.0 mg/kg/injection, schedule: Q01DX009 (ip), vehicle: saline) 186 % of control; (dose: 75.0 mg/kg/injection, schedule: Q01DX Z (ip), vehicle: other) 123 % of control. Besides, the T/C reads like this: (dose: 90.0 mg/kg/injection, schedule: Q01DX009 (ip), vehicle: saline) 166 % of control; (dose: 150.0 mg/kg/injection, schedule: Q01DX009 (ip), vehicle: saline) 101 % of control; (dose: 300.0 mg/kg/injection, schedule: Q01DX001 (ip), vehicle: saline) 153 % of control.
In the case of `CC(C)CC1NC(=O)N(C)C1=O` (centres undefined), the T/C runs as follows: under setting [4], 95 % of control; (dose: 150.0 mg/kg/injection, schedule: Q01DX001 (ip), vehicle: carboxymethylcellulose (CMC)) 100 % of control; (dose: 300.0 mg/kg/injection, schedule: Q01DX001 (ip), vehicle: carboxymethylcellulose (CMC)) 100 % of control.
In the case of `BrCc1cccc2ccccc12`, the T/C (dose: 25.0 mg/kg/injection, schedule: Q01DX009 (ip), vehicle: acetone) is 96 % of control; the T/C (dose: 50.0 mg/kg/injection, schedule: Q01DX009 (ip), vehicle: acetone) was 95 % of control; the T/C (dose: 50.0 mg/kg/injection, schedule: Q04DX003 (ip), vehicle: saline) is 90 % of control; the T/C under setting [2] is 98 % of control; the T/C (dose: 100.0 mg/kg/injection, schedule: Q01DX009 (ip), vehicle: acetone) was 95 % of control; the T/C under setting [1] was 87 % of control. The T/C under setting [3] was 102 % of control.
Turning to `CC1(c2ccc(C(O)c3ccccc3)s2)OCCO1` (centres undefined), the T/C by setting is: (dose: 33.0 mg/kg/injection, schedule: Q01DX009 (ip), vehicle: carboxymethylcellulose (CMC)) 103 % of control; (dose: 37.5 mg/kg/injection, schedule: Q04DX003 (ip), vehicle: Klucel (hydroxypropylcellulose) (HPC)) 109 % of control; (dose: 50.0 mg/kg/injection, schedule: Q01DX009 (ip), vehicle: carboxymethylcellulose (CMC)) 98 % of control; under setting [4], 109 % of control; (dose: 75.0 mg/kg/injection, schedule: Q01DX009 (ip), vehicle: carboxymethylcellulose (CMC)) 103 % of control; (dose: 75.0 mg/kg/injection, schedule: Q04DX003 (ip), vehicle: Klucel (hydroxypropylcellulose) (HPC)) 109 % of control. The T/C was 103 % of control (dose: 100.0 mg/kg/injection, schedule: Q01DX001 (ip), vehicle: Klucel (hydroxypropylcellulose) (HPC)); 97 % of control (dose: 150.0 mg/kg/injection, schedule: Q01DX001 (ip), vehicle: Klucel (hydroxypropylcellulose) (HPC)); 113 % of control (dose: 150.0 mg/kg/injection, schedule: Q01DX009 (ip), vehicle: carboxymethylcellulose (CMC)); 109 % of control (dose: 225.0 mg/kg/injection, schedule: Q01DX001 (ip), vehicle: Klucel (hydroxypropylcellulose) (HPC)).
Consider `C[N+](C)(C)C12CCC(CC1)C1([N+](C)(C)C)CCC2CC1`, for which the T/C was 109 % of control (dose: 100.0 mg/kg/injection, schedule: Q04DX002 (ip), vehicle: Klucel (hydroxypropylcellulose) (HPC)); 113 % of control (dose: 200.0 mg/kg/injection, schedule: Q04DX002 (ip), vehicle: Klucel (hydroxypropylcellulose) (HPC)); 117 % of control (dose: 400.0 mg/kg/injection, schedule: Q04DX002 (ip), vehicle: Klucel (hydroxypropylcellulose) (HPC)).
`CCOC(=O)C(NC(N)=O)C(=O)OCC`: the T/C reads like this: (dose: 100.0 mg/kg/injection, schedule: Q01DX009 (ip), vehicle: Klucel (hydroxypropylcellulose) (HPC)) 95 % of control; (dose: 100.0 mg/kg/injection, schedule: Q04DX003 (ip), vehicle: Klucel (hydroxypropylcellulose) (HPC)) 95 % of control; (dose: 200.0 mg/kg/injection, schedule: Q01DX009 (ip), vehicle: Klucel (hydroxypropylcellulose) (HPC)) 101 % of control; (dose: 200.0 mg/kg/injection, schedule: Q04DX003 (ip), vehicle: Klucel (hydroxypropylcellulose) (HPC)) 97 % of control; (dose: 400.0 mg/kg/injection, schedule: Q01DX009 (ip), vehicle: Klucel (hydroxypropylcellulose) (HPC)) 101 % of control; (dose: 400.0 mg/kg/injection, schedule: Q04DX003 (ip), vehicle: Klucel (hydroxypropylcellulose) (HPC)) 104 % of control.
As for `[O-][n+]1ccc(Cl)cc1`, the T/C by setting is: (dose: 100.0 mg/kg/injection, schedule: Q01DX009 (ip), vehicle: saline) 100 % of control; (dose: 200.0 mg/kg/injection, schedule: Q01DX009 (ip), vehicle: saline) 96 % of control; (dose: 400.0 mg/kg/injection, schedule: Q01DX009 (ip), vehicle: saline) 94 % of control.
Turning to `Cc1ccc(NC(=S)Nc2cccc(C(F)(F)F)c2)cc1C`, the T/C runs as follows: (dose: 87.5 mg/kg/injection, schedule: Q01DX009 (ip), vehicle: Klucel (hydroxypropylcellulose) (HPC)) 101 % of control; (dose: 175.0 mg/kg/injection, schedule: Q01DX009 (ip), vehicle: Klucel (hydroxypropylcellulose) (HPC)) 98 % of control; (dose: 350.0 mg/kg/injection, schedule: Q01DX009 (ip), vehicle: Klucel (hydroxypropylcellulose) (HPC)) 102 % of control.
